Experimental data: US4740504A, “Antihyperlipidemic amine boranes” (United States Borax & Chemical Corp., priority 1987, dated 1988)

Experiments:
[1] = system: liver mitochondrial citrate exchange; experiment: Enzymatic studies in vitro: liver mitochondrial citrate exchange; assay type: biochemical; settings: at all concentrations tested
[2] = target: T1, acetyl CoA synthetase (Mus musculus, UniProt Q9QXG4); experiment: Enzyme activity after in vivo dosing: acetyl CoA synthetase; settings: 16 mg/kg/day
T1 construct: from tissue
T1 sequence (Q9QXG4 whole entry): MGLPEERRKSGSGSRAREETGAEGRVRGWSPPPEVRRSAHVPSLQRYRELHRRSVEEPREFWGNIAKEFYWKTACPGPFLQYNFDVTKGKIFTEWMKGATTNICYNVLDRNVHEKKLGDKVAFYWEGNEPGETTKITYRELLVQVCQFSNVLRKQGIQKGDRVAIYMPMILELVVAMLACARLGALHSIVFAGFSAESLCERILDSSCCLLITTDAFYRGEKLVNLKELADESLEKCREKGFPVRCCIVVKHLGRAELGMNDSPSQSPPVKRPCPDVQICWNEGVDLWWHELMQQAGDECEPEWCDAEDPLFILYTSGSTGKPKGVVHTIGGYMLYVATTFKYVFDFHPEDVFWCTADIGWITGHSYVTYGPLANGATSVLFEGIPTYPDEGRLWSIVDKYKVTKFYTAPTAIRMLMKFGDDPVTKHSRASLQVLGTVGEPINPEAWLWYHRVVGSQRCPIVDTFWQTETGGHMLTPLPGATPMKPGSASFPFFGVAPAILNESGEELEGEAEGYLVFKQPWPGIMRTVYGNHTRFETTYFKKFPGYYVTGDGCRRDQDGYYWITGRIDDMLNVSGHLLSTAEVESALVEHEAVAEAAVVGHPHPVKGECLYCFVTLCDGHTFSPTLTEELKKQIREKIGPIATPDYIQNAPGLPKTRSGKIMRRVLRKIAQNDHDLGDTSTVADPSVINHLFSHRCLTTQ

[3] = system: Sprague Dawley male rats; experiment: Hypolipidemic activity in Sprague Dawley rats, oral dosing (serum cholesterol and triglyceride); assay type: in vivo
Protocol: N-n-Octadecyl-N,N-dimethylamine borane was suspended in an aqueous 1% carboxymethylcellulose solution, homogenized, and administered to CF1 male mice (~25 g.) intraperitoneally for 16 days or Sprague Dawley male rats (~350 g.) orally by an intubation needle for 14 days. On days 9 and 14 or 16, blood was obtained by tail vein bleeding and the serum separated by centrifugation for 3 minutes. The serum cholesterol levels were determined by a modification of the Liebermann-Burchard reaction. Serum was also collected on day 14 or 16 and the triglyceride content was determined by a Fisher-Hycel Triglyceride Test Kit.

[4] = target: T2, acyl CoA cholesterol acyl transferase (Mus musculus, UniProt O88908); experiment: Enzyme activity after in vivo dosing: acyl CoA cholesterol acyl transferase; settings: 8 mg/kg/day
T2 construct: from tissue
T2 sequence (O88908 1-525): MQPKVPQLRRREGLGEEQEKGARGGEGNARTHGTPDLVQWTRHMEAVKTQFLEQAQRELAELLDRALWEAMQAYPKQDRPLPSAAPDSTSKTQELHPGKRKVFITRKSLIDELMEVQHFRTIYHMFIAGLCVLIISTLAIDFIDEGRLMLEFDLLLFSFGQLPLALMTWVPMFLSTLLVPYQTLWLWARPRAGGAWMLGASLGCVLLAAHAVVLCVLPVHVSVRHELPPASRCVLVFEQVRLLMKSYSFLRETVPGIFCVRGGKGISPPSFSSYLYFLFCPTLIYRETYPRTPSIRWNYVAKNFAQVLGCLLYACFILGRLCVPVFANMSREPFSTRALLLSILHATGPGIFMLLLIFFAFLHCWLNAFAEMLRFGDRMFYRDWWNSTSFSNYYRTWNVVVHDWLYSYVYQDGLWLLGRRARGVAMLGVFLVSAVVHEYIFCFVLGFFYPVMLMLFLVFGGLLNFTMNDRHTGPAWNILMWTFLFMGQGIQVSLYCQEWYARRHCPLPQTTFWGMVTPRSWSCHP

[5] = target: T2, acyl CoA cholesterol acyl transferase; experiment: Enzymatic studies in vitro: acyl CoA cholesterol acyl transferase; assay type: biochemical; settings: read-out: reduction of acyl CoA cholesterol acyl transferase activity
[6] = Sprague Dawley rats, oral administration at 20 mg/kg/day
[7] = Table III, 20 mg/kg/day orally, Sprague Dawley rats

## [BH3-][N+](C)(C)CCCCCCCCCCCCCCCCCC [I, N-n-Octadecyl-N,N-Dimethylamine Borane]
[1]
  reduction of liver mitochondrial citrate exchange: more than 50%
[2]
  reduction of acetyl CoA synthetase: 32%
[3]; [6]
  lowering of serum triglyceride levels: 35%
  reduction of serum cholesterol levels: 54%
[3]; [7]
  Serum Cholesterol Day 9 (X ± SD): 82 ± 8% of Control
  Serum Cholesterol Day 14 (X ± SD): 46 ± 5% of Control
  Serum Triglyceride Day 9 (X ± SD): 82 ± 7% of Control
  Serum Triglyceride Day 14 (X ± SD): 65 ± 6% of Control
[3]; in rats
  optimum dosage: about 20 mg./kg.
[4]
  lowering of acyl CoA cholesterol acyl transferase activity: 52%
[5]; 100 μM
  inhibition at 100 µM: 41%
[5]; 200 μM
  inhibition at 200 µM: 55%
